# From patent US20120309087A1, “CANCER THERAPY” (University Court of The University of Dundee, priority 2006, published 2012)
# What was measured:
# [1] = system: ARE-driven luciferase activity in AREc32 cells; experiment: Antagonism of induced ARE-driven luciferase activity in AREc32 cells; assay type: cell-based, human
# [2] = system: GST, GCLC and NQO1 in the small intestine; experiment: ARE-regulated proteins in small intestine of mice on vitamin A deficient diet; assay type: in vivo; conditions: wild-type mice; ATRA i.p. 10 mg/kg daily for last 2 weeks of VAD diet
# Procedure: Wild-type (nrf2^+/+) and knockout (KO, nrf2^−/−) mice, 8 weeks old, were placed on control or vitamin A deficient (VAD) diet for six weeks as described in “Materials and Methods II”. Portions (5 μg protein) of crude extracts from small intestine of wild-type and KO mice were subjected to Western blotting with specific antibodies against NQO1, GstM5, GstA1/2 and GCLC. Each lane contains a sample from an individual mouse. […] These animals were sacrificed and immunoblotting for GST, GCLC and NQO1 performed as before.
# Homozygous Nrf2 KO mice and mouse genotyping were as described previously (Itoh et al., 1997). Two month old, C57BL/6 nrf2^−/− and nrf2^+/+ male mice were used in this study. Animals were maintained in a 12-h light-dark cycle, with free access to food and water. The mice were weighed daily during the experiment period. All animal procedures were carried out under UK Home Office license and after gaining local ethical committee approval.
# Two feeding experiments were carried out. In Experiment 1, at the first stage, which lasted for four weeks, Nrf2 (+/+) mice were maintained on a retinoic acid deficient VAD diet (Special Diet Services, Witham, Essex, UK). […] In experiment 2, Nrf2 (−/−) mice were maintained on control or VAD diet for six weeks. […]
# [3] = system: AKR1C protein in Caco-2 cells; experiment: AKR1C protein in Caco-2 cells (Western blotting); assay type: cell-based, human; conditions: sulforaphane 5 μM, BTB09463 5 μM or Retinoic acid 1 μM, 24 hrs
# Procedure: Method: AREc32 cells were seeded out in 96 well plates and treated with DMSO (control), tBHQ (50 μM), tBHQ+BTB09463 (5 μM) or tBHQ+Retinoic acid (1 μM). After 24 hours incubation, cells were washed and lysed before measuring luciferase activity. BTB09463 is 1-{4-[(3,4-dichlorobenzyl)oxy]phenyl}ethan-1-one. […] Method: AREc32 cells were seeded out in 96 well plates and dosed with BTB09463 (2.5, 5 or 10 μM) for 0, 24 or 48 hrs before treatment with tBHQ (50 μM). 24 hours after the addition of tBHQ, cells were washed and lysed before measuring luciferase activity. […] Method: ARE c32 cells were seeded out in 96 well plates and treated with DMSO (control), tBHQ (50 μM), tBHQ+retinoid (0.25, 0.5 and 1 μM). After 24 hours incubation, cells were washed and lysed before measuring luciferase activity. […] See FIG. 16 Method: A. Caco-2 cells were treated with the known ARE-gene inducer sulforaphane (5 μM), either alone or concomitantly with BTB09463 (5 μM) or Retinoic acid (1 μM). After 24 hrs, cell lysates were prepared and Western blotting performed to measure the levels of AKR1C protein. B. MCF7 cells were treated with sulforaphane (5 μM), either alone or concomitantly with BTB09463 (5 μM). After 24 hrs, cell lysates were prepared and Western blots performed to detect the levels of AKR1C and NQO1; GAPDH was used as a loading control in MCF7 cells. […] Method: Caco-2 cells were treated with DMSO (control), BTB09463 (5 μM), sulforaphane (5 μM) or a combination of sulforaphane plus BTB09463. After 24 hrs treatment, cells were harvested and RNA isolated. cDNA for each sample was generated by reverse transcription and subsequently used in real time PCR analysis of gene transcription (TaqMan analysis) for the ARE-driven genes AKR1C1 and NQO1. Data was normalised to the internal control 18S RNA and the relative levels of AKR1C1 and NQO1 calculated using the comparative CT method. […] Method: MCF7 cells were treated with the known ARE-gene inducer sulforaphane (5 μM), either alone or with various retinoids (0.5 μM). After 24 hrs, cell lysates were prepared and Western blots were performed to detect the levels of AKR1C protein present. […] See FIG. 19 Method: ARE reporter cell line AREc23 was seeded into 96 well plates and treated with a previously determined non-toxic concentration of cytotoxic drug. After 24 hours incubation, cells were washed and lysed before measuring luciferase activity. […] See FIG. 20a Method: ARE reporter cell line AREc23 was seeded into 96 well plates and treated with DMSO (control), Carmustine (100 μM), Carmustine+BTB09463 (5 μM) or Carmustine+Retinoic acid (5 μM) After 24 hours incubation, cells were washed and lysed before measuring luciferase activity. […] After 24 hours incubation, cells were washed and lysed before measuring luciferase activity. […]
# [4] = system: AKR1C1, NQO1, GCLC, GCLM mRNA in A549 cells; experiment: Constitutive mRNA of ARE-driven genes in A549 cells (Taqman); assay type: cell-based, human; conditions: 24 hrs
# [5] = biological target: interaction between RARα and Nrf2 (Homo sapiens, UniProt P10276); experiment: Co-immunoprecipitation of RARα and Nrf2; assay type: binding; conditions: co-immunoprecipitation experiments
# interaction between RARα and Nrf2, sequence (P10276 whole entry): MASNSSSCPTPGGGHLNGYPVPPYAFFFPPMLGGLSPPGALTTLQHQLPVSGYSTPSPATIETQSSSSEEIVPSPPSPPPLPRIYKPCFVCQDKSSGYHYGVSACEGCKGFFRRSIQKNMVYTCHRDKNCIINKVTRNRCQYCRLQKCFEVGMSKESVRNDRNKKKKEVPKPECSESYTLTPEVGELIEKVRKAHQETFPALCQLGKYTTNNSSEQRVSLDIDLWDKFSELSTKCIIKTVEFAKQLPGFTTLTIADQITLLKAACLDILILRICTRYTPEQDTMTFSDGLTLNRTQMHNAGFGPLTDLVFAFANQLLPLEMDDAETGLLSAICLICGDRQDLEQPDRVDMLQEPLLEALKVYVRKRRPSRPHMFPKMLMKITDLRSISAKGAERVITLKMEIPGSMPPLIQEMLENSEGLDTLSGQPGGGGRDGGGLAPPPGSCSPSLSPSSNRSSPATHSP
# interaction between RARα and Nrf2, sequence (Q16236 whole entry partner): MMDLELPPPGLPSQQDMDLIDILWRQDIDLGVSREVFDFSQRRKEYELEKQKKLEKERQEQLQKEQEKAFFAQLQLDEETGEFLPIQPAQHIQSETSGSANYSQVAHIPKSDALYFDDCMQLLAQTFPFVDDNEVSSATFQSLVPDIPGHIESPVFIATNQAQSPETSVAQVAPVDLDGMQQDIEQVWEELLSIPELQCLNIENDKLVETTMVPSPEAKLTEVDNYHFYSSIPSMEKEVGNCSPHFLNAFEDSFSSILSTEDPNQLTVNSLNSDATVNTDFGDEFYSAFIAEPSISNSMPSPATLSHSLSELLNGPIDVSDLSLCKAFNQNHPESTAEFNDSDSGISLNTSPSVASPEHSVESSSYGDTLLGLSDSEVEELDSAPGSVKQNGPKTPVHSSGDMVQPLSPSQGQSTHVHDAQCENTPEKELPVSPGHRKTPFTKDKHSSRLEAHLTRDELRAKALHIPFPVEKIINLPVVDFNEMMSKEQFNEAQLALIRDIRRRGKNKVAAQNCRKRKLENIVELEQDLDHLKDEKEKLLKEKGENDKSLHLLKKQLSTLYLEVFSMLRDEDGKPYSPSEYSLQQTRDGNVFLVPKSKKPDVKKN
# [6] = system: AKR1C mRNA in AREc32 cells; experiment: AKR1C mRNA in AREc32 cells (TaqMan)
# [7] = system: AKR1C protein in AREc32 cells; experiment: AKR1C protein in AREc32 cells (western blotting); conditions: 1 μM ATRA, 10 μM tBHQ; scanning of the Western blots
# [8] = system: Nrf2; experiment: Nuclear Nrf2 level in AREc32 cells (western blot of nuclear extracts); conditions: 10 μM tBHQ plus 1 μM ATRA, 24 h
# [9] = system: binding of Nrf2 to an ARE sequence; experiment: Biotinylated ARE oligonucleotide pull-down assay, AREc32 nuclear extracts; conditions: 10 μM tBHQ with 1 μM ATRA, 24 h
# [10] = system: protein complexes binding to an ARE sequence; experiment: Electrophoretic mobility shift assay with ARE probe, AREc32 nuclear extracts; conditions: 10 μM tBHQ with 1 μM ATRA, 24 h
# [11] = 1 μM ATRA with 10 μM tBHQ, acrolein, NF or Sul, 24 h
smiles,measurement,setting,value
"CC1=C(/C=C/C(C)=C/C=C/C(C)=C/C(=O)O)C(C)(C)CCC1 [ATRA, all trans-retinoic acid]",effect on increase in ARE-driven luciferase activity by inducing agents,[1]; [11],significantly attenuated
same,luciferase activity following subtraction of the DMSO control,[1]; [11],almost complete ablation of luciferase activity
same,induction of ARE-driven luciferase activity by anticancer drugs,"[1]; 1 μM ATRA with cisplatin, melphalan, chlorambucil or BCNU, no BSO",prevented
same,ARE responses to anticancer drugs after BSO pre-treatment,"[1]; 1 μM ATRA, 50 μM BSO pre-treatment, after subtraction of DMSO control",reduced almost to background levels
same,lag phase before increase of luciferase activity,[1]; 10 μM tBHQ plus 1 μM ATRA simultaneously,16 h
same,suppression of tBHQ induction of luciferase,"[1]; 50 μM tBHQ + 1 μM Retinoic acid, 24 h",~75%
same,carmustine-mediated induction of luciferase activity,"[1]; Carmustine 100 μM + BTB09463 5 μM or Retinoic acid 5 μM, 24 hours",completely suppress
same,"induction of ARE-driven genes (GstM5, GCLC, NQO1, GstA1) by VAD diet in the small intestine",[2],almost completely reversed
same,sulforaphane induction of AKR1C protein,[3],dramatically reduced
same,constitutive expression of AKR1C1 mRNA,"[4]; BTB09463 1, 5, 20, 40 μmol/l or retinoids 0.050, 0.20, 0.50, 2.0 μmol/l",inhibited the constitutive expression of AKR1C1 in a concentration-dependent manner
same,"constitutive mRNA levels of NQO1, GCLC and GCLM",[4]; BTB09463 1-40 μmol/l or retinoic acid 0.050-2.0 μmol/l,"repressed the constitutive mRNA levels of NQO1, GCLC and GCLM in a concentration-dependent manner"
same,association between RARα and Nrf2,[5],greatly promoted
same,inhibition of tBHQ induction of AKR1C1 mRNA,"[6]; 1 μM ATRA, after subtracting the DMSO control",approximately 85%
same,induction of AKR1C1 mRNA by tBHQ on co-incubation,"[6]; 10 μM tBHQ plus 1 μM ATRA, 24 h",3 fold
same,reduction of tBHQ-induced AKR1C protein,[7],approximately 50%
same,nuclear translocation / nuclear concentration of Nrf2,[8],did not block nuclear translocation of Nrf2
same,binding of Nrf2 to the ARE (pull-down),[9],inhibited the binding of Nrf2 to the ARE
same,binding of complexes to core ARE sequence (EMSA),[10],binding was reduced
